From patent US20230150953A1, “SUBSTITUTED ISOPHTHALIC ACID DIAMIDES” (Bayer Aktiengesellschaft, priority 2020, published 2023)

Legend:
Format in all cases: in vivo
[1] = test system: AMARE Amaranthus retroflexus; experiment: Post-emergence herbicidal action against harmful plants; settings: one-leaf stage, assessed visually after about 3 weeks vs untreated controls
From the text: (§1) The abbreviations used for the harmful plants mean: • ABUTH Abutilon theophrasti ALOMY Alopecurus myosuroides • AVEFA Avena fatua AMARE Amaranthus retroflexus • CYPES Cyperus esculentus DIGSA Digitaria sanguinalis • ECHCG Echinochloa crus-galli HORMU Hordeum murinum • LOLMU Lolium multiflorum LOLRI Lolium rigidum • MATIN Matricaria inodora PHBPU Pharbitis purpurea • POLCO Polygonum convolvulus SETVI Setaria viridis • STEME Stellaria media VERPE Veronica persica • VIOTR Viola tricolor 2. Post-Emergence Herbicidal Action Against Harmful Plants Seeds of monocotyledonous and dicotyledonous weed and crop plants are laid out in sandy loam soil in wood-fiber pots, covered with soil and cultivated in a greenhouse under good growth conditions. 2 to 3 weeks after sowing, the test plants are treated at the one-leaf stage. The compounds of the invention, formulated in the form of wettable powders (WP) or as emulsion concentrates (EC), are then sprayed onto the green parts of the plants in the form of an aqueous suspension or emulsion at a water application rate equivalent to 600 to 800 l/ha, with addition of 0.2% wetting agent. After the test plants have been left to stand in the greenhouse under optimal growth conditions for about 3 weeks, the action of the preparations is assessed visually in comparison to untreated controls (herbicidal action in percent (%): 100% activity=the plants have died, 0% activity=like control plants). […] The tables below illustrate, in an illustrative manner, the post-emergence herbicidal action of the compounds of the invention, the herbicidal activity being stated in percent.

[2] = test system: ABUTH Abutilon theophrasti; experiment: Pre-emergence herbicidal action against harmful plants; settings: scored visually after 3 weeks vs untreated controls
From the text: (§2) The abbreviations used for the harmful plants mean: • ABUTH Abutilon theophrasti ALOMY Alopecurus myosuroides • AVEFA Avena fatua AMARE Amaranthus retroflexus • CYPES Cyperus esculentus DIGSA Digitaria sanguinalis • ECHCG Echinochloa crus-galli HORMU Hordeum murinum • LOLMU Lolium multiflorum LOLRI Lolium rigidum • MATIN Matricaria inodora PHBPU Pharbitis purpurea • POLCO Polygonum convolvulus SETVI Setaria viridis • STEME Stellaria media VERPE Veronica persica • VIOTR Viola tricolor 1. Pre-Emergence Herbicidal Action Against Harmful Plants Seeds of monocotyledonous and dicotyledonous weed plants and crop plants are laid out in sandy loam soil in wood-fiber pots and covered with soil. The compounds of the invention, formulated in the form of wettable powders (WP) or as emulsion concentrates (EC), are then applied to the surface of the covering soil in the form of an aqueous suspension or emulsion at a water application rate equivalent to 600 to 800 l/ha, with addition of 0.2% wetting agent. After the treatment, the pots are placed in a greenhouse and kept under good growth conditions for the trial plants. The damage to the test plants is scored visually after a test period of 3 weeks by comparison with untreated controls (herbicidal activity in percent (%): 100% activity=the plants have died, 0% activity=like control plants). […] The tables below illustrate, in an illustrative manner, the post-emergence herbicidal action of the compounds of the invention, the herbicidal activity being stated in percent.

[3] = test system: ALOMY Alopecurus myosuroides; experiment: as above; settings: 80 g/ha, scored visually after 3 weeks vs untreated controls
From the text: as §2

[4] = test system: AMARE Amaranthus retroflexus; experiment: as above; settings: scored visually after 3 weeks vs untreated controls
From the text: as §2

[5] = test system: DIGSA Digitaria sanguinalis; experiment: as above; settings: scored visually after 3 weeks vs untreated controls
From the text: as §2

[6] = test system: ECHCG Echinochloa crus-galli; experiment: as above; settings: scored visually after 3 weeks vs untreated controls
From the text: as §2

[7] = test system: LOLRI Lolium rigidum; experiment: as above; settings: scored visually after 3 weeks vs untreated controls
From the text: as §2

[8] = test system: MATIN Matricaria inodora; experiment: as above; settings: scored visually after 3 weeks vs untreated controls
From the text: as §2

[9] = test system: POLCO Polygonum convolvulus; experiment: as above; settings: scored visually after 3 weeks vs untreated controls
From the text: as §2

[10] = test system: SETVI Setaria viridis; experiment: as above; settings: scored visually after 3 weeks vs untreated controls
From the text: as §2

[11] = test system: PHBPU Pharbitis purpurea; experiment: Post-emergence herbicidal action against harmful plants; settings: one-leaf stage, assessed visually after about 3 weeks vs untreated controls
From the text: as §1

[12] = test system: PHBPU Pharbitis purpurea; experiment: Pre-emergence herbicidal action against harmful plants; settings: scored visually after 3 weeks vs untreated controls
From the text: as §2

[13] = test system: ECHCG Echinochloa crus-galli; experiment: Post-emergence herbicidal action against harmful plants; settings: 20 g/ha, one-leaf stage, assessed visually after about 3 weeks vs untreated controls
From the text: as §1

Structure (SMILES): CCNC(=O)c1c(C(F)(F)F)cc(OC)c(C(=O)Nc2nnnn2C)c1Cl [Example 1-388]
- Post-emergence action at 20 g/ha against AMARE in % [1]: 80%

Structure (SMILES): CCn1nnnc1NC(=O)c1c(F)cc(C(F)(F)F)c(C(=O)N(C)C)c1C [Example 2-95, N′-(1-ethyl-1H-tetrazol-5-yl)-4-fluoro-N,N,2-trimethyl-6-(trifluoromethyl)isophthalamide]
- Pre-emergence action at 80 g/ha against ABUTH in % [2]: 100%
- Pre-emergence action at 80 g/ha against ALOMY in % [3]: 90%
- Pre-emergence action at 80 g/ha against AMARE in % [4]: 100%
- Pre-emergence action at 20 g/ha against DIGSA in % [5]: 90%
- Pre-emergence action at 80 g/ha against DIGSA in % [5]: 100%
- Pre-emergence action at 80 g/ha against ECHCG in % [6]: 80%
- Pre-emergence action at 80 g/ha against LOLRI in % [7]: 80%
- Pre-emergence action at 80 g/ha against MATIN in % [8]: 90%
- Pre-emergence action at 20 g/ha against POLCO in % [9]: 80%
- Pre-emergence action at 80 g/ha against POLCO in % [9]: 100%
- Pre-emergence action at 80 g/ha against SETVI in % [10]: 90%
- Post-emergence action at 20 g/ha against PHBPU in % [11]: 80%

Structure (SMILES): CCNC(=O)c1c(C(F)(F)F)cc(F)c(C(=O)Nc2nnnn2CC)c1C [Example 2-93, N^1-ethyl-N^3-(1-ethyl-1H-tetrazol-5-yl)-4-fluoro-2-methyl-6-(trifluoromethyl)isophthalamide]
- Pre-emergence action at 80 g/ha against ABUTH in % [2]: 100%
- Pre-emergence action at 80 g/ha against ALOMY in % [3]: 90%
- Pre-emergence action at 20 g/ha against AMARE in % [4]: 100%
- Pre-emergence action at 80 g/ha against AMARE in % [4]: 100%
- Pre-emergence action at 80 g/ha against DIGSA in % [5]: 100%
- Pre-emergence action at 80 g/ha against ECHCG in % [6]: 80%
- Pre-emergence action at 20 g/ha against MATIN in % [8]: 80%
- Pre-emergence action at 80 g/ha against MATIN in % [8]: 90%
- Pre-emergence action at 20 g/ha against PHBPU in % ([12]; 20 g/ha): 80%
- Pre-emergence action at 80 g/ha against PHBPU in % [12]: 90%
- Pre-emergence action at 80 g/ha against SETVI in % [10]: 80%
- Post-emergence action at 5 g/ha against AMARE in % [1]: 80%
- Post-emergence action at 20 g/ha against AMARE in % [1]: 90%
- Post-emergence action at 20 g/ha against PHBPU in % [11]: 90%

Structure (SMILES): CCn1nnnc1NC(=O)c1c(F)cc(C(F)(F)F)c(C(=O)NCC2CC2)c1C [Example 2-384]
- Pre-emergence action at 20 g/ha against ABUTH in % [2]: 90%
- Pre-emergence action at 80 g/ha against ABUTH in % [2]: 100%
- Pre-emergence action at 80 g/ha against ALOMY in % [3]: 80%
- Pre-emergence action at 20 g/ha against AMARE in % [4]: 100%
- Pre-emergence action at 80 g/ha against AMARE in % [4]: 100%
- Pre-emergence action at 20 g/ha against DIGSA in % [5]: 80%
- Pre-emergence action at 80 g/ha against DIGSA in % [5]: 100%
- Pre-emergence action at 80 g/ha against ECHCG in % [6]: 80%
- Pre-emergence action at 80 g/ha against MATIN in % [8]: 100%
- Pre-emergence action at 80 g/ha against PHBPU in % [12]: 80%
- Pre-emergence action at 20 g/ha against POLCO in % [9]: 90%
- Pre-emergence action at 80 g/ha against POLCO in % [9]: 100%
- Pre-emergence action at 80 g/ha against SETVI in % [10]: 80%
- Post-emergence action at 5 g/ha against AMARE in % [1]: 90%
- Post-emergence action at 20 g/ha against AMARE in % [1]: 90%
- Post-emergence action at 20 g/ha against ECHCG in % [13]: 80%

Structure (SMILES): CCNC(=O)c1c(C(F)(F)F)cc(F)c(C(=O)Nc2nnnn2C)c1C [Example 1-93]
- Pre-emergence action at 20 g/ha against ABUTH in % [2]: 100%
- Pre-emergence action at 80 g/ha against ABUTH in % [2]: 100%
- Pre-emergence action at 80 g/ha against ALOMY in % [3]: 80%
- Pre-emergence action at 20 g/ha against AMARE in % [4]: 100%
- Pre-emergence action at 80 g/ha against AMARE in % [4]: 100%
- Pre-emergence action at 20 g/ha against DIGSA in % [5]: 80%
- Pre-emergence action at 80 g/ha against DIGSA in % [5]: 100%
- Pre-emergence action at 80 g/ha against ECHCG in % [6]: 90%
- Pre-emergence action at 80 g/ha against LOLRI in % [7]: 80%
- Pre-emergence action at 80 g/ha against MATIN in % [8]: 90%
- Pre-emergence action at 80 g/ha against PHBPU in % [12]: 90%
- Pre-emergence action at 80 g/ha against POLCO in % [9]: 80%
- Pre-emergence action at 80 g/ha against SETVI in % [10]: 80%
- Post-emergence action at 5 g/ha against AMARE in % [1]: 90%
- Post-emergence action at 20 g/ha against AMARE in % [1]: 90%
- Post-emergence action at 5 g/ha against PHBPU in % ([11]; 5 g/ha): 80%
- Post-emergence action at 20 g/ha against PHBPU in % [11]: 90%

Structure (SMILES): Cc1c(C(=O)Nc2nnnn2C)c(F)cc(C(F)(F)F)c1C(=O)NCC(F)F [Example 1-385, N^1-(2,2-difluoroethyl)-4-fluoro-2-methyl-N^3-(1-methyl-1H-tetrazol-5-yl)-6-(trifluoromethyl)isophthalamide]
- Pre-emergence action at 80 g/ha against ABUTH in % [2]: 80%
- Pre-emergence action at 80 g/ha against ALOMY in % [3]: 90%
- Pre-emergence action at 20 g/ha against AMARE in % [4]: 90%
- Pre-emergence action at 80 g/ha against AMARE in % [4]: 100%
- Pre-emergence action at 20 g/ha against DIGSA in % [5]: 80%
- Pre-emergence action at 80 g/ha against DIGSA in % [5]: 100%
- Pre-emergence action at 80 g/ha against MATIN in % [8]: 90%
- Pre-emergence action at 80 g/ha against PHBPU in % [12]: 80%
- Pre-emergence action at 80 g/ha against SETVI in % [10]: 90%
- Post-emergence action at 5 g/ha against AMARE in % [1]: 90%
- Post-emergence action at 20 g/ha against AMARE in % [1]: 90%

Structure (SMILES): CCn1nnnc1NC(=O)c1c(F)cc(C(F)(F)F)c(C(=O)NC)c1C [Example 2-92]
- Pre-emergence action at 80 g/ha against ABUTH in % [2]: 80%
- Pre-emergence action at 20 g/ha against AMARE in % [4]: 100%
- Pre-emergence action at 80 g/ha against AMARE in % [4]: 100%
- Pre-emergence action at 20 g/ha against DIGSA in % [5]: 80%
- Pre-emergence action at 80 g/ha against DIGSA in % [5]: 100%
- Pre-emergence action at 80 g/ha against LOLRI in % [7]: 90%
- Pre-emergence action at 20 g/ha against MATIN in % [8]: 90%
- Pre-emergence action at 80 g/ha against MATIN in % [8]: 90%
- Pre-emergence action at 80 g/ha against PHBPU in % [12]: 80%
- Pre-emergence action at 20 g/ha against POLCO in % [9]: 80%
- Pre-emergence action at 80 g/ha against POLCO in % [9]: 90%
- Post-emergence action at 5 g/ha against AMARE in % [1]: 90%
- Post-emergence action at 20 g/ha against AMARE in % [1]: 90%
- Post-emergence action at 20 g/ha against ECHCG in % [13]: 80%
- Post-emergence action at 20 g/ha against PHBPU in % [11]: 80%

Structure (SMILES): CCn1nnnc1NC(=O)c1c(F)cc(C(F)(F)F)c(C(=O)NCC#N)c1C [Example 2-386]
- Pre-emergence action at 80 g/ha against AMARE in % [4]: 100%
- Pre-emergence action at 80 g/ha against MATIN in % [8]: 80%
- Pre-emergence action at 80 g/ha against POLCO in % [9]: 80%

Structure (SMILES): Cc1c(C(=O)Nc2nnnn2C)c(F)cc(C(F)(F)F)c1C(=O)N(C)C [Example 1-95]
- Pre-emergence action at 80 g/ha against ALOMY in % [3]: 90%
- Pre-emergence action at 20 g/ha against AMARE in % [4]: 90%
- Pre-emergence action at 80 g/ha against AMARE in % [4]: 100%
- Pre-emergence action at 20 g/ha against DIGSA in % [5]: 80%
- Pre-emergence action at 80 g/ha against DIGSA in % [5]: 90%
- Pre-emergence action at 80 g/ha against MATIN in % [8]: 90%
- Pre-emergence action at 80 g/ha against POLCO in % [9]: 80%
- Pre-emergence action at 20 g/ha against SETVI in % ([10]; 20 g/ha): 100%
- Pre-emergence action at 80 g/ha against SETVI in % [10]: 100%
- Post-emergence action at 20 g/ha against AMARE in % [1]: 90%
